Laboratory results: US20200009029A1, “COSMETIC COMPOSITION COMPRISING WATER DEPLETED IN 2H AND 18O ISOTOPS” (MEDENA AG, priority 2016, published 2020)

Assays:
[1] = Superoxide scavenging activity (antioxidant capacity), superoxide dismutase dependent reduction of cytochrome c; assay type: biochemical
[2] = Stability of verbascoside in merystem cell homogenate / carboxyl methyl cellulose mixture over thirty days (HPLC); assay type: physicochemical; settings: 0.1 weight-% carboxyl methyl cellulose, initial 100 μM, darkness, 25° C., 30 days
Protocol: Merystem plant cells containing highly oxydisable active principles such as polyphenols (in this example verbascoside) were homogenized in ^18O and ^2H depleted (De-O,D) water having a concentration of 99.894 weight-% (and for comparison in distilled natural water). A hydrogel-forming substance, namely carboxyl methyl cellulose was added to the solutions in a concentration of 0.1 weight-%. The final concentration of verbascoside in the mixture was determined to be 100 μM by HPLC method using chromatographic standard of verbascoside. This concentration corresponds to 6 mg/100 ml or 0.006 weight-%. The maximum of the absorbance spectrum was obtained at 278 nm and retention time 15.65 min. The mixture was left in darkness at room temperature (25° C.) for thirty days. After this period, the mixture was analyzed for the presence and concentration of verbascoside.

## C[C@@H]1O[C@@H](O[C@@H]2[C@@H](O)[C@H](OCCc3ccc(O)c(O)c3)O[C@H](CO)[C@H]2OC(=O)/C=C/c2ccc(O)c(O)c2)[C@H](O)[C@H](O)[C@H]1O [verbascoside]
[1]; mixture in natural water, day 30
  superoxide scavenging activity (antioxidant capacity): not measurable
[1]; mixture with De-O,D water, carboxy methyl cellulose and merystem cell homogenate, to day 30
  superoxide scavenging activity (antioxidant capacity): remained practically unchanged
[1]; mixtures of Example 1, day 0
  superoxide scavenging activity (antioxidant capacity): possessed superoxide scavenging activity
[2]; mixture in 18O and 2H depleted (De-O,D) water
  presence and concentration of verbascoside after thirty days (HPLC): retained practically the initial levels
[2]; mixture in distilled natural water
  presence and concentration of verbascoside after thirty days (HPLC): did not contain any measurable amounts
